Values after ≈ are worked out from the molar mass of the structure shown.
How the values were obtained:
[1] = tested on: Streptococcus pneumoniae; assay: Antibacterial activity against genotype penicillin-resistant Streptococcus pneumoniae by CLSI method; assay type: functional
[2] = tested on: Staphylococcus aureus; assay: Antibacterial activity against Staphylococcus aureus ATCC 29213 by CLSI method; assay type: functional
[3] = tested on: Escherichia coli; assay: Antibacterial activity against Escherichia coli ATCC 25922 by CLSI method; assay type: functional
[4] = tested on: Escherichia coli; assay: Antibacterial activity against Escherichia coli ATCC 25922 in presence of PAbetaN by CLSI method; assay type: functional
[5] = molecular target: DNA gyrase (Escherichia coli, UniProt P0AES4+P0AES6); assay: Inhibition of Escherichia coli DNA gyrase by measuring supercoiling activity incubated for 60 mins by fluorescence based assay; assay type: protein-complex assay
[6] = Inhibition of Escherichia coli topoisomerase IV by measuring relaxation activity incubated for 30 mins by fluorescence based assay
[7] = tested on: Enterococcus; assay: Antibacterial activity against Vancomycin-resistant Enterococcus by CLSI method; assay type: functional
[8] = tested on: Enterococcus faecalis; assay: Antibacterial activity against Enterococcus faecalis ATCC 29212 by CLSI method; assay type: functional
[9] = tested on: Enterococcus faecium; assay: Antibacterial activity against vancomycin-resistant Enterococcus faecium ATCC 51559 by CLSI method; assay type: functional
[10] = tested on: Streptococcus anginosus; assay: Antibacterial activity against Streptococcus anginosus ATCC 33397 by CLSI method; assay type: functional
[11] = tested on: Streptococcus pneumoniae; assay: Antibacterial activity against Streptococcus pneumoniae ATCC 49619 by CLSI method; assay type: functional
[12] = tested on: Enterococcus faecalis; assay: Antibacterial activity against vancomycin-resistant Enterococcus faecalis ATCC 51575 by CLSI method; assay type: functional
[13] = tested on: Staphylococcus aureus; assay: Antibacterial activity against Methicillin-resistant Staphylococcus aureus by CLSI method; assay type: functional

| SMILES | MIC [2] | MIC [3] | MIC [4] | IC50 [5] | also measured |
| --- | --- | --- | --- | --- | --- |
| CC[C@H]1OC(=O)[C@H](C)[C@@H](O[C@H]2C[C@@](C)(OC)[C@@H](O)[C@H](C)O2)[C@H](C)[C@@H](O[C@@H]2O[C@H](C)C[C@H](N(C)C)[C@H]2O)[C@](C)(O)C[C@@H](C)CN(C)[C@H](C)[C@@H](O)[C@]1(C)O [AZITHROMYCIN] | – | – | – | – | MIC50 [1]: > 128 µg/mL; MIC90 [1]: > 128 µg/mL |
| CNc1cc(F)cc2cc(C(=O)Nc3ccc(C(=O)O)cc3CN(CCN)C3CCCCC3)c(=O)[nH]c12.O=C(O)C(F)(F)F | > 64 µg/mL | > 64 µg/mL | 16 µg/mL | 3.68 nM | – |
| CNc1cc(F)cc2cc(C(=O)Nc3ccc(C(=O)NCCN)cc3)c(=O)[nH]c12.Cl | > 8 µg/mL | > 8 µg/mL | > 8 µg/mL | 9.4 nM | – |
| CNc1cc(F)cc2c(NCCN3CCOCC3)c(C(=O)Nc3ccc(C(=O)O)cc3)c(=O)[nH]c12.O=CO | 32 µg/mL | > 64 µg/mL | 0.12 µg/mL | 14.6 nM | – |
| CC1(C)S[C@@H]2[C@H](NC(=O)Cc3ccccc3)C(=O)N2[C@H]1C(=O)O [PENICILLIN G] | – | – | – | – | MIC50 [1]: 2 µg/mL (≈ 5.98 µM); MIC90 [1]: 4 µg/mL (≈ 12 µM) |
| CNc1cc(F)cc2cc(C(=O)Nc3cnc(C(=O)O)nc3)c(=O)[nH]c12 | > 16 µg/mL | > 16 µg/mL | > 16 µg/mL | 0.95 nM | IC50 [6]: 32.5 nM |
| CNc1cc(F)cc2cc(C(=O)Nc3ccc(C(=O)N(C)CCN4CCOCC4)cc3)c(=O)[nH]c12 | 16 µg/mL (≈ 33.2 µM) | > 16 µg/mL | 0.12 µg/mL | 6.36 nM | – |
| CNc1cc(F)cc2cc(C(=O)Nc3ccc(C(=O)O)cc3CNCCO)c(=O)[nH]c12.Cl | > 64 µg/mL | > 64 µg/mL | 2 µg/mL | 129 nM | – |
| CNc1cc(F)cc2cc(C(=O)Nc3ccc(C(N)=O)cc3CN(C)C3CCCCC3)c(=O)[nH]c12 | > 32 µg/mL | > 32 µg/mL | ≤ 0.03 µg/mL | 2.48 nM | – |
| CN[C@H](CC(C)C)C(=O)N[C@H]1C(=O)N[C@@H](CC(N)=O)C(=O)N[C@H]2C(=O)N[C@H]3C(=O)N[C@H](C(=O)N[C@H](C(=O)O)c4cc(O)cc(O)c4-c4cc3ccc4O)[C@H](O)c3ccc(c(Cl)c3)Oc3cc2cc(c3O[C@@H]2O[C@H](CO)[C@@H](O)[C@H](O)[C@H]2O[C@H]2C[C@](C)(N)[C@H](O)[C@H](C)O2)Oc2ccc(cc2Cl)[C@H]1O [VANCOMYCIN] | – | > 128 µg/mL | – | – | MIC50 [7]: > 128 µg/mL; MIC90 [7]: > 128 µg/mL; MIC [8]: 2 µg/mL (≈ 1.38 µM); MIC [9]: > 128 µg/mL; MIC50 [1]: 0.25 µg/mL (≈ 0.173 µM); MIC90 [1]: 0.5 µg/mL (≈ 0.345 µM); MIC [10]: 0.5 µg/mL (≈ 0.345 µM); MIC [11]: 0.25 µg/mL (≈ 0.173 µM); MIC [12]: > 128 µg/mL; MIC50 [13]: 1 µg/mL (≈ 0.69 µM); MIC90 [13]: 2 µg/mL (≈ 1.38 µM) |
| Cc1onc(-c2ccccc2)c1C(=O)N[C@@H]1C(=O)N2[C@@H]1SC(C)(C)[C@@H]2C(=O)O [OXACILLIN] | – | – | – | – | MIC50 [13]: > 128 µg/mL; MIC90 [13]: > 128 µg/mL |
| CNc1cc(F)cc2c(O)c(C(=O)Nc3ccc(C(=O)NS(=O)(=O)N(C)C)cc3CN3CCCCC3)c(=O)[nH]c12 | – | 64 µg/mL (≈ 111 µM) | 0.06 µg/mL | 4.44 nM | – |
| CNc1cc(F)cc2c(NCC3(N)CCC3)c(C(=O)Nc3ccc(C(=O)O)cc3)c(=O)[nH]c12.O=CO | > 32 µg/mL | > 32 µg/mL | 0.25 µg/mL | 2.15 nM | – |
| CNc1cc(F)cc2cc(C(=O)Nc3ccc(C(=O)O)cc3CN(C)C3CC3)c(=O)[nH]c12 | > 8 µg/mL | > 8 µg/mL | ≤ 0.03 µg/mL | 0.6 nM | IC50 [6]: 771 nM |
| C[C@@H](O)[C@H]1C(=O)N2C(C(=O)O)=C(S[C@@H]3CN[C@H](C(=O)N(C)C)C3)[C@H](C)[C@H]12 [MEROPENEM] | – | – | – | – | MIC50 [1]: 0.5 µg/mL (≈ 1.3 µM); MIC90 [1]: 1 µg/mL (≈ 2.61 µM) |
| CNc1cc(F)cc2cc(C(=O)Nc3ccc(C(=O)O)c(O)c3)c(=O)[nH]c12 | > 32 µg/mL | > 32 µg/mL | 1 µg/mL | 2.05 nM | – |
| CNc1cc(F)cc2cc(C(=O)Nc3ccc(C(=O)O)cc3CN(CC(=O)O)C3CCCCC3)c(=O)[nH]c12 | 32 µg/mL (≈ 61 µM) | > 64 µg/mL | 0.12 µg/mL | 0.57 nM | IC50 [6]: 76.3 nM |

| SMILES | MIC [2] | MIC [3] | MIC [4] | IC50 [5] | also measured |
| --- | --- | --- | --- | --- | --- |
| CNCCCc1c(C(=O)Nc2ccc(C(=O)O)cc2)c(=O)[nH]c2c(NC)cc(F)cc12.O=C(O)C(F)(F)F | – | > 32 µg/mL | > 32 µg/mL | 131 nM | – |
| CNc1cc(F)cc2c(NCCCN)c(C(=O)Nc3ccc(C(=O)O)cc3)c(=O)[nH]c12.O=CO | > 8 µg/mL | > 8 µg/mL | 2 µg/mL | 0.52 nM | – |
| CNCCNc1c(C(=O)Nc2ccc(C(=O)O)cc2)c(=O)[nH]c2c(NC)cc(F)cc12.O=CO | > 16 µg/mL | > 16 µg/mL | 8 µg/mL | 2.09 nM | – |
| CNCCc1c(C(=O)Nc2ccc(C(=O)O)cc2)c(=O)[nH]c2c(NC)cc(F)cc12.O=C(O)C(F)(F)F | > 8 µg/mL | > 8 µg/mL | > 8 µg/mL | 109 nM | – |
| CNc1cc(F)cc2cc(C(=O)Nc3ccc(C(=O)O)cc3CNC3CCCCC3)c(=O)[nH]c12.O=C(O)C(F)(F)F | 16 µg/mL | 32 µg/mL | 0.5 µg/mL | 0.26 nM | – |
| CNc1cc(F)cc2c(NCCN)c(C(=O)Nc3ccc(C(=O)O)cc3)c(=O)[nH]c12.O=CO | > 16 µg/mL | > 16 µg/mL | 4 µg/mL | 0.94 nM | – |
| CNc1cc(F)cc2c(N[C@H]3C[C@@H](N)C3)c(C(=O)Nc3ccc(C(=O)O)cc3)c(=O)[nH]c12.O=CO | > 32 µg/mL | > 32 µg/mL | 1 µg/mL | 2.66 nM | – |
| CNc1cc(F)cc2cc(C(=O)Nc3ccc(C(=O)O)cc3CN(C)C3CCCCC3)c(=O)[nH]c12.Cl | 2 µg/mL | 8 µg/mL | ≤ 0.03 µg/mL | 0.53 nM | IC50 [6]: 47.4 nM |
| C[C@H]1COc2c(N3CCN(C)CC3)c(F)cc3c(=O)c(C(=O)O)cn1c23.C[C@H]1COc2c(N3CCN(C)CC3)c(F)cc3c(=O)c(C(=O)O)cn1c23.O [LEVOFLOXACIN] | – | – | – | – | MIC50 [7]: 8 µg/mL; MIC90 [7]: 128 µg/mL; MIC50 [1]: 2 µg/mL; MIC90 [1]: 2 µg/mL; MIC50 [13]: 16 µg/mL; MIC90 [13]: > 128 µg/mL |
| CNc1cc(F)cc2c(NCC3CCNCC3)c(C(=O)Nc3ccc(C(=O)O)cc3)c(=O)[nH]c12.O=CO | > 32 µg/mL | > 32 µg/mL | 0.5 µg/mL | 1.31 nM | – |
| CNc1cc(F)cc2cc(C(=O)Nc3ccc(CO)cc3CN(C)C3CCCCC3)c(=O)[nH]c12 | 4 µg/mL (≈ 8.57 µM) | 16 µg/mL (≈ 34.3 µM) | 0.06 µg/mL | 1.92 nM | – |
| CNc1cc(F)cc2c(NCC3CNC3)c(C(=O)Nc3ccc(C(=O)O)cc3)c(=O)[nH]c12.O=CO | > 16 µg/mL | > 16 µg/mL | – | 0.66 nM | – |
| CCCCCN(C)Cc1cc(C(=O)O)ccc1NC(=O)c1cc2cc(F)cc(NC)c2[nH]c1=O | 0.5 µg/mL (≈ 1.07 µM) | 4 µg/mL (≈ 8.54 µM) | ≤ 0.03 µg/mL | 0.21 nM | IC50 [6]: 41.4 nM |
| CCCCCCCCCC(=O)N[C@@H](Cc1c[nH]c2ccccc12)C(=O)N[C@H](CC(N)=O)C(=O)N[C@@H](CC(=O)O)C(=O)N[C@@H]1C(=O)NCC(=O)N[C@@H](CCCN)C(=O)N[C@@H](CC(=O)O)C(=O)N[C@H](C)C(=O)N[C@@H](CC(=O)O)C(=O)NCC(=O)N[C@H](CO)C(=O)N[C@@H]([C@H](C)CC(=O)O)C(=O)N[C@@H](CC(=O)c2ccccc2N)C(=O)O[C@@H]1C | – | – | – | – | MIC50 [7]: 2 µg/mL (≈ 1.23 µM); MIC90 [7]: 4 µg/mL (≈ 2.47 µM); MIC50 [13]: 1 µg/mL (≈ 0.617 µM); MIC90 [13]: 1 µg/mL (≈ 0.617 µM) |
| CNc1cc(F)cc2cc(C(=O)Nc3ccc(C(=O)NCCN4CCOCC4)cc3)c(=O)[nH]c12 | > 16 µg/mL | 4 µg/mL (≈ 8.56 µM) | 0.06 µg/mL | 7.29 nM | IC50 [6]: 1300 nM |
| CC(=O)NC[C@H]1CN(c2ccc(N3CCOCC3)c(F)c2)C(=O)O1 [LINEZOLID] | – | – | – | – | MIC50 [7]: 4 µg/mL (≈ 11.9 µM); MIC90 [7]: 4 µg/mL (≈ 11.9 µM); MIC50 [13]: 4 µg/mL (≈ 11.9 µM); MIC90 [13]: 4 µg/mL (≈ 11.9 µM) |
